Data as given in PubChem BioAssay (NCI).
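Protocol summary: plate cells (96-well), add compound at 5 concentrations, incubate 48 h, interpolate endpoints linearly. At the GI50, growth is halved. Definition used: TGI = concentration required for complete inhibition of growth.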

Experiments:
Assay in all cases: NCI tumour cell line growth inhibition, 48 h
786-0 renal = tested on: 786-0 renal
A498 renal = tested on: A498 renal
A549 NSCLC = tested on: A549 NSCLC
ACHN renal = tested on: ACHN renal
BT-549 breast = tested on: BT-549 breast
CAKI-1 renal = tested on: CAKI-1 renal
CCRF-CEM leukemia = tested on: CCRF-CEM leukemia
COLO 205 colon = tested on: COLO 205 colon
DU-145 prostate = tested on: DU-145 prostate
EKVX NSCLC = tested on: EKVX NSCLC
HCC-2998 colon = tested on: HCC-2998 colon
HCT-116 colon = tested on: HCT-116 colon
HCT-15 colon = tested on: HCT-15 colon
HL-60(TB) leukemia = tested on: HL-60(TB) leukemia
HOP-62 NSCLC = tested on: HOP-62 NSCLC
HOP-92 NSCLC = tested on: HOP-92 NSCLC
HS 578T breast = tested on: HS 578T breast
IGROV1 ovarian = tested on: IGROV1 ovarian
K-562 leukemia = tested on: K-562 leukemia
KM12 colon = tested on: KM12 colon
LOX IMVI melanoma = tested on: LOX IMVI melanoma
M14 melanoma = tested on: M14 melanoma
MALME-3M melanoma = tested on: MALME-3M melanoma
MCF7 breast = tested on: MCF7 breast
MDA-MB-231 breast = tested on: MDA-MB-231 breast
MDA-MB-435 = tested on: MDA-MB-435
MDA-MB-468 breast = tested on: MDA-MB-468 breast
MOLT-4 leukemia = tested on: MOLT-4 leukemia
NCI-H226 lung = tested on: NCI-H226 lung
NCI-H23 lung = tested on: NCI-H23 lung
NCI-H460 lung = tested on: NCI-H460 lung
NCI-H522 lung = tested on: NCI-H522 lung
NCI/ADR-RES ovarian = tested on: NCI/ADR-RES ovarian
OVCAR-3 ovarian = tested on: OVCAR-3 ovarian
OVCAR-4 ovarian = tested on: OVCAR-4 ovarian
OVCAR-5 ovarian = tested on: OVCAR-5 ovarian
OVCAR-8 ovarian = tested on: OVCAR-8 ovarian
PC-3 prostate = tested on: PC-3 prostate
RPMI-8226 leukemia = tested on: RPMI-8226 leukemia
RXF 393 renal = tested on: RXF 393 renal
SF-268 CNS = tested on: SF-268 CNS
SF-295 CNS = tested on: SF-295 CNS
SF-539 CNS = tested on: SF-539 CNS
SK-MEL-2 melanoma = tested on: SK-MEL-2 melanoma
SK-MEL-28 melanoma = tested on: SK-MEL-28 melanoma
SK-MEL-5 melanoma = tested on: SK-MEL-5 melanoma
SK-OV-3 ovarian = tested on: SK-OV-3 ovarian
SN12C renal = tested on: SN12C renal
SNB-19 CNS = tested on: SNB-19 CNS
SNB-75 CNS = tested on: SNB-75 CNS
SR leukemia = tested on: SR leukemia
T-47D breast = tested on: T-47D breast
TK-10 renal = tested on: TK-10 renal
U251 CNS = tested on: U251 CNS
UACC-257 melanoma = tested on: UACC-257 melanoma
UACC-62 melanoma = tested on: UACC-62 melanoma
UO-31 renal = tested on: UO-31 renal
HT29 colon = tested on: HT29 colon
SW-620 colon = tested on: SW-620 colon

## COc1ccc(C(=O)Nc2sc3c(c2C#N)CCC(=O)C3)cc1C(F)(F)F
786-0 renal
  GI50: 1.82 µM
  TGI: 7.27 µM
A498 renal
  GI50: 5.74 µM
  TGI: 36.1 µM
A549 NSCLC
  GI50: 2.78 µM
  TGI: > 100 µM
ACHN renal
  GI50: 0.375 µM
  TGI: 1.26 µM
BT-549 breast
  GI50: 0.564 µM
  TGI: 1.92 µM
CAKI-1 renal
  GI50: 0.491 µM
  TGI: 1.84 µM
CCRF-CEM leukemia
  GI50: 0.27 µM
  TGI: > 100 µM
COLO 205 colon
  GI50: 0.582 µM
  TGI: 1.62 µM
DU-145 prostate
  GI50: 2.91 µM
  TGI: > 30.4 µM
EKVX NSCLC
  GI50: 2.35 µM
  TGI: 8.76 µM
HCC-2998 colon
  GI50: 1.45 µM
  TGI: 3.2 µM
HCT-116 colon
  GI50: 0.299 µM
  TGI: 1.58 µM
HCT-15 colon
  GI50: 0.385 µM
  TGI: 1.49 µM
HL-60(TB) leukemia
  GI50: 0.339 µM
  TGI: 5.78 µM
HOP-62 NSCLC
  GI50: 2.65 µM
  TGI: 8.88 µM
HOP-92 NSCLC
  GI50: 0.708 µM
  TGI: 2.53 µM
HS 578T breast
  GI50: 0.862 µM
  TGI: 3.68 µM
IGROV1 ovarian
  GI50: 1.29 µM
  TGI: 2.97 µM
K-562 leukemia
  GI50: 0.294 µM
  TGI: > 100 µM
KM12 colon
  GI50: 0.584 µM
  TGI: 2.21 µM
LOX IMVI melanoma
  GI50: 0.416 µM
  TGI: 1.65 µM
M14 melanoma
  GI50: 0.499 µM
  TGI: 1.92 µM
MALME-3M melanoma
  GI50: 0.37 µM
  TGI: 1.42 µM
MCF7 breast
  GI50: 0.408 µM
  TGI: 3.15 µM
MDA-MB-231 breast
  GI50: 1.14 µM
  TGI: 2.6 µM
MDA-MB-435
  GI50: 0.594 µM
  TGI: 2.06 µM
MDA-MB-468 breast
  GI50: 0.495 µM
  TGI: 1.48 µM
MOLT-4 leukemia
  GI50: 0.322 µM
  TGI: > 19.7 µM
NCI-H226 lung
  GI50: 2.31 µM
  TGI: 7.09 µM
NCI-H23 lung
  GI50: 0.537 µM
  TGI: 2.71 µM
NCI-H460 lung
  GI50: 2.11 µM
  TGI: 6.73 µM
NCI-H522 lung
  GI50: 0.225 µM
  TGI: 0.753 µM
NCI/ADR-RES ovarian
  GI50: 1.3 µM
  TGI: 3.64 µM
OVCAR-3 ovarian
  GI50: 0.845 µM
  TGI: 2.44 µM
OVCAR-4 ovarian
  GI50: 1.11 µM
  TGI: 2.76 µM
OVCAR-5 ovarian
  GI50: 1.96 µM
  TGI: 4.84 µM
OVCAR-8 ovarian
  GI50: 1.28 µM
  TGI: 3.71 µM
PC-3 prostate
  GI50: 0.317 µM
  TGI: 4 µM
RPMI-8226 leukemia
  GI50: 0.145 µM
RXF 393 renal
  GI50: 0.434 µM
  TGI: 1.69 µM
SF-268 CNS
  GI50: 2.03 µM
  TGI: 6.6 µM
SF-295 CNS
  GI50: 1.79 µM
  TGI: 4.78 µM
SF-539 CNS
  GI50: 0.343 µM
  TGI: 1.28 µM
SK-MEL-2 melanoma
  GI50: 1.67 µM
  TGI: 4.06 µM
SK-MEL-28 melanoma
  GI50: 0.882 µM
  TGI: 2.33 µM
SK-MEL-5 melanoma
  GI50: 1.35 µM
  TGI: 2.66 µM
SK-OV-3 ovarian
  GI50: 2.48 µM
  TGI: 6.71 µM
SN12C renal
  GI50: 0.966 µM
  TGI: 6.19 µM
SNB-19 CNS
  GI50: 2.5 µM
  TGI: 10.5 µM
SNB-75 CNS
  GI50: 1.22 µM
  TGI: 3.68 µM
SR leukemia
  GI50: 0.339 µM
  TGI: > 100 µM
T-47D breast
  GI50: 0.352 µM
  TGI: 2.08 µM
TK-10 renal
  GI50: 1.21 µM
  TGI: 7.6 µM
U251 CNS
  GI50: 0.723 µM
  TGI: 2.53 µM
UACC-257 melanoma
  GI50: 1.6 µM
  TGI: 3.92 µM
UACC-62 melanoma
  GI50: 0.826 µM
  TGI: 2.21 µM
UO-31 renal
  GI50: 0.422 µM
  TGI: 1.62 µM

## O=C1NC(=NC2CCCCCC2)N/C1=C\c1ccc2ncoc2c1
786-0 renal
  GI50: 5.02 µM
  TGI: 47 µM
A498 renal
  GI50: 2.09 µM
  TGI: 8.84 µM
A549 NSCLC
  GI50: 3.01 µM
  TGI: 32.1 µM
ACHN renal
  GI50: 2.68 µM
  TGI: 10.1 µM
BT-549 breast
  GI50: 1.94 µM
  TGI: 12.3 µM
CAKI-1 renal
  GI50: 2.61 µM
  TGI: 12.9 µM
CCRF-CEM leukemia
  GI50: 2.87 µM
  TGI: 16.2 µM
COLO 205 colon
  GI50: 3.14 µM
  TGI: 14.2 µM
DU-145 prostate
  GI50: 4.02 µM
  TGI: 17.1 µM
EKVX NSCLC
  GI50: 8.68 µM
  TGI: 49.4 µM
HCC-2998 colon
  GI50: 12.3 µM
  TGI: 27.6 µM
HCT-116 colon
  GI50: 1.92 µM
  TGI: 10.9 µM
HCT-15 colon
  GI50: 3.41 µM
  TGI: 26.4 µM
HL-60(TB) leukemia
  GI50: 3.69 µM
  TGI: 19.3 µM
HOP-62 NSCLC
  GI50: 3.3 µM
  TGI: 45.6 µM
HOP-92 NSCLC
  GI50: 6.58 µM
  TGI: 58.6 µM
HS 578T breast
  GI50: 2.87 µM
  TGI: 26.5 µM
HT29 colon
  GI50: 9.36 µM
  TGI: 37.8 µM
IGROV1 ovarian
  GI50: 4.35 µM
  TGI: 34.1 µM
K-562 leukemia
  GI50: 4.97 µM
  TGI: 37.2 µM
KM12 colon
  GI50: 3.83 µM
  TGI: 19.1 µM
LOX IMVI melanoma
  GI50: 4.33 µM
  TGI: 20.9 µM
M14 melanoma
  GI50: 8.62 µM
  TGI: 25.2 µM
MALME-3M melanoma
  GI50: 10.5 µM
  TGI: 24.4 µM
MCF7 breast
  GI50: 3.58 µM
  TGI: 30.2 µM
MDA-MB-231 breast
  GI50: 11.3 µM
  TGI: 58.4 µM
MDA-MB-435
  GI50: 6.27 µM
  TGI: 21.4 µM
MDA-MB-468 breast
  GI50: 2.44 µM
  TGI: 12.6 µM
MOLT-4 leukemia
  GI50: 3.51 µM
  TGI: 22 µM
NCI-H226 lung
  GI50: 2.63 µM
  TGI: > 100 µM
NCI-H23 lung
  GI50: 3.16 µM
  TGI: 18.7 µM
NCI-H460 lung
  GI50: 4.08 µM
  TGI: 15.6 µM
NCI-H522 lung
  GI50: 1.27 µM
  TGI: 15 µM
OVCAR-3 ovarian
  GI50: 2.13 µM
  TGI: 9.17 µM
OVCAR-4 ovarian
  GI50: 12.4 µM
  TGI: 53.4 µM
OVCAR-5 ovarian
  GI50: 4.33 µM
  TGI: 68.4 µM
OVCAR-8 ovarian
  GI50: 3.55 µM
  TGI: 18 µM
PC-3 prostate
  GI50: 8.53 µM
  TGI: 60.6 µM
RPMI-8226 leukemia
  GI50: 5.22 µM
  TGI: 31.7 µM
RXF 393 renal
  GI50: 2.02 µM
  TGI: 5.32 µM
SF-268 CNS
  GI50: 5.61 µM
  TGI: 38.8 µM
SF-295 CNS
  GI50: 7.52 µM
  TGI: > 100 µM
SF-539 CNS
  GI50: 1.01 µM
  TGI: 5.75 µM
SK-MEL-2 melanoma
  GI50: 2.86 µM
  TGI: 9.46 µM
SK-MEL-28 melanoma
  GI50: 3.5 µM
  TGI: 14.1 µM
SK-MEL-5 melanoma
  GI50: 3.66 µM
  TGI: 14.8 µM
SK-OV-3 ovarian
  GI50: 2.71 µM
  TGI: 62.9 µM
SN12C renal
  GI50: 2.89 µM
  TGI: 18.1 µM
SNB-19 CNS
  GI50: 2.43 µM
  TGI: 44.6 µM
SNB-75 CNS
  GI50: 0.757 µM
  TGI: 12.3 µM
SR leukemia
  GI50: 1.97 µM
  TGI: 8.09 µM
SW-620 colon
  GI50: 3.27 µM
  TGI: 18.9 µM
T-47D breast
  GI50: 2.87 µM
  TGI: 63.2 µM
TK-10 renal
  GI50: 3.86 µM
  TGI: > 100 µM
U251 CNS
  GI50: 3.54 µM
  TGI: 68.9 µM
UACC-257 melanoma
  GI50: 5.95 µM
  TGI: 23 µM
UACC-62 melanoma
  GI50: 2.74 µM
  TGI: 12 µM
UO-31 renal
  GI50: 3.31 µM
  TGI: 9.46 µM
